Measured values reported in patent publication US20230416329A1, “A PEPTIDE WITH DISULFIDE BONDS AND INHIBITORY ACTIVITY AGAINST SERINE PROTEASES, DERIVED HYBRID PEPTIDES THEREOF, AND USES THEREOF” (INSTITUTE OF MATERIA MEDICA , CHINESE ACADEMY OF MEDICAL …, priority 2020, published 2023).
Values belong to the molecule of their own block, whether it stands above or below them. Bridge positions count the residues as written; N and C are the ends. Ends that are not written are not given here.

Key:
DPP-IV = DPP-IV (Homo sapiens, UniProt P27487); assay: Tolerance of GLP-1 and its analogues to DPP-IV (RP-HPLC remaining peak area); format: in vitro ADME; settings: peptide 25 μM, DPP-IV 0.5 ng/μL, 37° C.
Chain of DPP-IV (P27487 whole entry, species assumed): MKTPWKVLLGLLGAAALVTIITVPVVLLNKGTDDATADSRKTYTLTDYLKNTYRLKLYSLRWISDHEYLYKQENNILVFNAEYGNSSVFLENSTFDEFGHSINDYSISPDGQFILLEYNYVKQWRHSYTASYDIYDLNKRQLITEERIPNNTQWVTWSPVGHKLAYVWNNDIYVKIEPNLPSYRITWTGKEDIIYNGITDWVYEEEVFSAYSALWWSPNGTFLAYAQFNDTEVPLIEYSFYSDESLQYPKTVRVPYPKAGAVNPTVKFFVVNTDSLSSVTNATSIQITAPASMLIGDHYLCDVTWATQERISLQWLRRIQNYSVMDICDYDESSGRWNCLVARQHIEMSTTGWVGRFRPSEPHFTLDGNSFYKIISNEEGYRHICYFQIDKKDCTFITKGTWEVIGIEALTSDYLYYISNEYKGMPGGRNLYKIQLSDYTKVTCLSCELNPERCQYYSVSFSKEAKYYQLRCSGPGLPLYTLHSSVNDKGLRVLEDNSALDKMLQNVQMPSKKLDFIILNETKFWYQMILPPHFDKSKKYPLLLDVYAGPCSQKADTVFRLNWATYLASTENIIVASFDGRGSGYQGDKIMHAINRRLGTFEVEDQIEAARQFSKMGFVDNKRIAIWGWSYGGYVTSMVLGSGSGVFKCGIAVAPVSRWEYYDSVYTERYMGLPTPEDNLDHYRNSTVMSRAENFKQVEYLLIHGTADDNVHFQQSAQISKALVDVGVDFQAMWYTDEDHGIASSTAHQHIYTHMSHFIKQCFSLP
Description: Mix by centrifugation at 8000 rpm for 30 seconds.
(2) Arrange a certain volume of 0.005 μg/μL DPP-IV solution in another sterile EP.

elastase = elastase (Sus scrofa, UniProt P00772); assay: in vitro; settings: isolated enzyme elastase
Chain of elastase (P00772 27-266): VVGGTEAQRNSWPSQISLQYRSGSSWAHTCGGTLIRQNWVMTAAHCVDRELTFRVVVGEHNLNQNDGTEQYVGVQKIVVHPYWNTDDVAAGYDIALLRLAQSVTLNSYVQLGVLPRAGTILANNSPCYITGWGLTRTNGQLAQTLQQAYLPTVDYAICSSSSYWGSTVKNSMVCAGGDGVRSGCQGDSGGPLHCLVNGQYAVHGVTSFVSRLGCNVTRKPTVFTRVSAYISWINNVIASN
Outline: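 Peptides and elastase (0.5 μg/μL solution) each pre-warmed 5 min at 37° C, then mixed; aliquots taken at 1.5 to 60.0 min and quenched with 10% TFA. Remaining intact peptide quantified as RP-HPLC peak area.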

normal ICR mice [1] = assay: In vivo hypoglycemic activity of GLP-1 analogues, subcutaneous administration, oral glucose loading; set-up: species or system mouse; settings: subcutaneous 1 μmol/kg, mean
Description: FIG. 21. In vivo hypoglycemic activities of GLP-1 analogues by subcutaneous administration. Normal ICR mice were subcutaneously injected with GLP-1 and its analogues or corresponding volumes of saline (1.0 μmol/kg, n=10). After 30 min, glucose solution (2 g/kg) was administered by gavage, and blood was collected from the tail tip at 30, 60, and 120 min after glucose administration. Blood glucose was measured using glucose oxidase method, and blood glucose values and area under the blood glucose curve (AUC) were calculated at each timepoint.
The day before the experiment, all of the animals were fasted for 15-16 hours with water ad libitum. On the day of the experiment, the animals were randomly divided according to body weight (n=10). Firstly, the blood was collected from the tail tip at 0 hour, and then the animals were administered subcutaneously with GLP-1 analog (SEQ ID NOs: 194-201, 1 μmol/kg) or saline. After 30 minutes, the animals were administered by gavage with glucose solution (2 g/kg), and the blood was collected from the tail tip at 30, 60, and 120 minutes later. Blood glucose was measured using glucose oxidase method. The blood glucose and area under the blood glucose-time curve (AUC) were calculated.

normal ICR mice [2] = assay: In vivo hypoglycemic activity of GLP-1 analogues, duodenal administration, oral glucose loading; set-up: species or system mouse
Description: FIG. 22. In vivo hypoglycemic activities of GLP-1 analogues by duodenal administration. Normal ICR mice were anesthetized with inhalation of ether, and the duodenum was surgically removed and injected with GLP-1 and its analogues or a corresponding volume of saline ([…], n=9-11), and finally the incision was sewed. After 15 min, glucose solution (2 g/kg) was administered by gavage, and blood was collected from the tail tips at 15, 30, and 60 min after glucose administration. Blood glucose was measured using glucose oxidase method, and blood glucose values and area under the blood glucose curve (AUC) were calculated at each timepoint.
Drug delivery technology can use enteric coating technology to achieve oral administration targeting the small intestine. In order to test the feasibility of direct small intestinal administration of GLP-1, the present invention designs duodenal administration. The experimental process is as follows: The day before the experiment, all of the animals were fasted for 15-16 hours with water ad libitum. On the day of the experiment, the animals were randomly divided according to body weight (n=9-11 or 14-15 for combined administration). Firstly, the blood was collected from the tail tip at 0 hours, and then the animals were anesthetized by inhaling ether. A small incision was made near the underside of the stomach using surgical scissors, and the duodenum was carefully removed and administered with GLP-1 analogs (SEQ ID NOs: 194-209, 10 μmol/kg) or saline. Finally, the wound was sutured. After 15 minutes, the glucose solution (2 g/kg) was administered by gavage, and the blood were collected from the tail tips at 15, 30, and 60 minutes after glucose administration. Blood glucose was measured using the glucose oxidase method. The blood glucose at each moment and area under the blood glucose-time curve (AUC) were calculated.
AUC mg×h/dL)=(BG0+BG15)×15/60+(BG15+BG30)×15/60+(BG30+BG60)×30/60. BG0, BG15, BG30, and BG60 represent blood glucose levels at 0, 15, 30, and 60 minutes after glucose loading, respectively.

[3] = Stability of GLP-1 and its analogues in human serum; settings: 25% (v/v) human serum
[4] = biological target: T1, interaction of PCSK9-LDLR (Homo sapiens, UniProt Q8NBP7); assay: PCSK9-LDLR in vitro binding assay (inhibitory rate); settings: in vitro
T1 construct: purchased MBL Company, Beijing, China CY-8150
Outline: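 Polypeptide (final 50 μM) pre-incubated 20 min at room temperature with PCSK9 (final 75 ng/mL), then run in a PCSK9-LDLR binding kit read at OD450/540 nm. Inhibition rate calculated relative to a solvent control (water or DMSO) lacking polypeptide.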

[5] = test system: P407-induced hyperlipidemia mice; assay: Subcutaneous injection of PCSK9 inhibitory peptide, serum total cholesterol in P407-induced hyperlipidemia mice; format: in vivo, mouse; settings: for serum total cholesterol (TC) level after subcutaneous injection (in words): 2 μmol/kg single s.c., P407-induced hyperlipidemia mice
Outline: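 ICR mice, fasted overnight, received intraperitoneal P407 at 500 mg/kg. After 24 h they received subcutaneous peptide at 2 μmol/kg in 20% PEG400; vehicle-treated and normal groups served as controls. Serum total cholesterol was measured at various times after dosing.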

[6] = test system: P407 induced hyperlipidemia mice; assay: Duodenal injection of PCSK9 inhibitory peptide, serum total cholesterol in P407 induced hyperlipidemia mice; format: in vivo, mouse
Description: The experimental polypeptide sample was prepared using PEG400 with a final concentration of 20 μmol/kg and the final concentration of PEG400 is 50% (w/v). The control group was saline containing PEG400 (50%).
Normal ICR mice were fasted overnight with water ad libitum. The next day, all of the mice were intraperitoneally injected with poloxamer 407 (P407, 500 mg/kg) to establish a model of lipid metabolism disorder. Six mice were intraperitoneally injected with saline as a normal control (Nor). Normal feeding resumed after 2 hours. The model animals were randomly divided into model group (Con) and polypeptide groups according to body weight, and the blood was collected from tail tip (0 min). Then, the animals were anesthetized with ether for duodenal exposure surgery. At the same time, a sample or saline containing PEG400 was injected through the duodenum. Finally, the wound was sutured. The blood was collected from tail tip at 15, 30, 60, and 90 minutes after administration to determine the serum total cholesterol level.

[7] = pH 8, Remaining peak area (%)/elastase
[8] = duodenal 10 μmol/kg, normal ICR mice, after oral glucose loading

Remaining peak area (%)/elastase (elastase; 1 h, 60 μM, pH 8): 17.8 ± 2.0% | remaining at 0.025 h, 60 μM (elastase; [7]): 90.2 ± 3% | remaining at 0.05 h, 60 μM (elastase; [7]): 86 ± 1.7% | remaining at 0.075 h, 60 μM (elastase; [7]): 79.7 ± 3.5% | remaining at 0.1 h, 60 μM (elastase; [7]): 79.1 ± 2.2% | remaining at 0.15 h, 60 μM (elastase; [7]): 74.5 ± 2.2% | remaining at 0.25 h, 60 μM (elastase; [7]): 63.3 ± 0.7% | remaining at 0.5 h, 60 μM (elastase; [7]): 49.4 ± 0.9% | remaining at 1 h, 60 μM (elastase; [7]): ~20% | Remaining peak area (%)/human serum ([3]; 0.0 h, peptide 0.03 mM, 37° C.): 100.0 ± 0.0% | remaining at 0.5 h, 0.03 mM ([3]; human, pH 7): 94.6 ± 5.3% | remaining at 2 h, 0.03 mM ([3]; human, pH 7): 69.3 ± 4% | remaining at 4 h, 0.03 mM ([3]; human, pH 7): 43.4 ± 1.7% | remaining at 8 h, 0.03 mM ([3]; human, pH 7): 5.7 ± 0.1% | remaining at 12 h, 0.03 mM ([3]; human, pH 7): 2.2 ± 0.1%
Molecule: CC[C@H](C)[C@H](NC(=O)[C@H](Cc1ccccc1)NC(=O)[C@H](CCC(=O)O)NC(=O)[C@H](CCCCN)NC(=O)[C@H](C)NC(=O)[C@H](C)NC(=O)[C@H](CCC(N)=O)NC(=O)CNC(=O)[C@H](CCC(=O)O)NC(=O)[C@H](CC(C)C)NC(=O)[C@H](Cc1ccc(O)cc1)NC(=O)[C@H](CO)NC(=O)[C@H](CO)NC(=O)[C@@H](NC(=O)[C@H](CC(=O)O)NC(=O)[C@H](CO)NC(=O)[C@@H](NC(=O)[C@H](Cc1ccccc1)NC(=O)[C@@H](NC(=O)CNC(=O)[C@H](CCC(=O)O)NC(=O)[C@H](C)NC(=O)[C@H](Cc1c[nH]cn1)NC(=O)CNC(=O)CNC(=O)[C@@H](NC(=O)[C@@H]1CCCN1C(=O)[C@@H](NC(=O)CNC(=O)CNC(=O)[C@H](CCC(N)=O)NC(=O)[C@@H]1CSSC[C@H](NC(=O)[C@@H](N)CC(C)C)C(=O)N[C@@H]([C@@H](C)O)C(=O)N[C@@H](C)C(=O)N[C@@H](CO)C(=O)N[C@@H]([C@@H](C)CC)C(=O)N2CCC[C@H]2C(=O)N2CCC[C@H]2C(=O)N[C@@H]([C@@H](C)CC)C(=O)N1)[C@@H](C)CC)[C@@H](C)CC)[C@@H](C)O)[C@@H](C)O)C(C)C)C(=O)N[C@@H](C)C(=O)N[C@@H](Cc1c[nH]c2ccccc12)C(=O)N[C@@H](CC(C)C)C(=O)N[C@H](C(=O)N[C@@H](CCCCN)C(=O)NCC(=O)N[C@@H](CCCNC(=N)N)C(=O)NCC(=O)NCC(=O)N[C@@H](CCCCN)C(=O)O)C(C)C [EC12-D-GLP-1]
Remaining peak area (%)/DPP-IV (DPP-IV; 0.0 h): 100.0 ± 0.0% | remaining at 0.5 h, 25 μM (DPP-IV; isolated DPP-IV enzyme in buffer, pH 8, 0.5 h): 79.1 ± 2.6% | remaining at 2 h, 25 μM (DPP-IV; isolated DPP-IV enzyme in buffer, pH 8, 2.0 h): 78.5 ± 1.1% | remaining at 4 h, 25 μM (DPP-IV; isolated DPP-IV enzyme in buffer, pH 8, 4.0 h): 81.7 ± 0.8% | remaining at 8 h, 25 μM (DPP-IV; isolated DPP-IV enzyme in buffer, pH 8, 8.0 h): 79.2 ± 2.6% | remaining at 12 h, 25 μM (DPP-IV; isolated DPP-IV enzyme in buffer, pH 8, 12.0 h): 80.7 ± 0.3% | AUC (blood glucose-time curve) (normal ICR mice [1]; 0-120 min): 159.1 mg·h/dL | Blood glucose 0 min (normal ICR mice [1]; 0 min, oral glucose loading 2 g/kg): 63.3 mg/dL | Blood glucose 30 min (normal ICR mice [1]; 30 min after oral glucose loading): 103.3 mg/dL | Blood glucose 60 min (normal ICR mice [1]; 60 min after oral glucose loading): 77.2 mg/dL | Blood glucose 120 min (normal ICR mice [1]; 120 min after oral glucose loading): 67.6 mg/dL | reduction of blood glucose at 15 minutes compared with Nor (normal ICR mice [2]; [8]): 11.9% | reduction of blood glucose at 30 minutes compared with Nor (normal ICR mice [2]; [8]): 19.9% | reduction of blood glucose at 60 minutes compared with Nor (normal ICR mice [2]; [8]): 17.4% | AUC (blood glucose-time curve) (normal ICR mice [2]; duodenal injection 10 μmol/kg, 0-60 min, mean): 123.6 mg·h/dL | Blood glucose 0 min (normal ICR mice [2]; duodenal injection 10 μmol/kg, 0 min, mean): 75.6 mg/dL | Blood glucose 15 min (normal ICR mice [2]; duodenal injection 10 μmol/kg, 15 min after oral glucose loading, mean): 120.8 mg/dL | Blood glucose 30 min (normal ICR mice [2]; duodenal injection 10 μmol/kg, 30 min, mean): 129.8 mg/dL | Blood glucose 60 min (normal ICR mice [2]; duodenal injection 10 μmol/kg, 60 min, mean): 141.1 mg/dL

inhibitory activity on the interaction between PCSK9 and LDLR (in words) ([4]; listed as SEQ ID NO: 231): good inhibitory effects in vitro
Molecule: Trp-Glu-Glu-Tyr-Leu-Asp-Tyr-Val-Gly-Ile-Cys-Thr-Ala-Ser-Ile-Pro-Pro-Ile-Cys-Gln-Gly-Thr-Val-Phe-Thr-Ser (WEEYLDYVGICTASIPPICQGTVFTS; disulfide 11-19 (inferred)) [PCSK9_6EC]
inhibitory activity on the interaction between PCSK9 and LDLR (in words) [4]: good inhibitory activity on the interaction between PCSK9 and LDLR | serum total cholesterol (TC) level after subcutaneous injection (in words) [5]: reduced serum TC level | serum total cholesterol (TC) level after subcutaneous injection (in words) ([5]; listed as SEQ ID NO: 231): excellent lowering lipid (total cholesterol) activities in vivo | TC 15 min ([5]; serum, subcutaneous 2 μmol/kg, 15 min after administration, mean ± sd): 2438 ± 610 µg/mL | TC 30 min ([5]; serum, subcutaneous 2 μmol/kg, 30 min after administration, mean ± sd): 2369 ± 574 µg/mL | TC 60 min ([5]; serum, subcutaneous 2 μmol/kg, 60 min after administration, mean ± sd): 2345 ± 638 µg/mL | TC 90 min ([5]; serum, subcutaneous 2 μmol/kg, 90 min after administration, mean ± sd): 2274 ± 586 µg/mL | hypolipidemic activity after duodenal administration (in words) ([6]; 20 μmol/kg, P407 induced hyperlipidemia mice): did not show hypolipidemic activity | TC 15 min ([6]; serum, duodenal injection 20 μmol/kg, 15 min, mean ± sd): 3166 ± 343 µg/mL | TC 30 min ([6]; serum, duodenal injection 20 μmol/kg, 30 min, mean ± sd): 2931 ± 673 µg/mL | TC 60 min ([6]; serum, duodenal injection 20 μmol/kg, 60 min, mean ± sd): 3239 ± 515 µg/mL | TC 90 min ([6]; serum, duodenal injection 20 μmol/kg, 90 min, mean ± sd): 3177 ± 443 µg/mL
